Structures are written as SMILES.

T1 sequence (P41597 whole entry): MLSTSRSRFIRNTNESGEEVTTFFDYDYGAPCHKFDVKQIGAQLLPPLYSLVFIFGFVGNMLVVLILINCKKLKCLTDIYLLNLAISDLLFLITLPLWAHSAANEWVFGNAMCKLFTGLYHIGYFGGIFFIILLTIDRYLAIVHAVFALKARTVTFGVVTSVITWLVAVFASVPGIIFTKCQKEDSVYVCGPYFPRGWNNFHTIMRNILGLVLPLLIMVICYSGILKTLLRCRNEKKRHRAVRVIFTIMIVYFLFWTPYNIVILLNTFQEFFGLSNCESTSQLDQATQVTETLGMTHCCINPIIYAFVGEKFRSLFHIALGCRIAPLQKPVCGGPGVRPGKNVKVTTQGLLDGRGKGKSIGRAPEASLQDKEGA

This assay has as its target T1, CCR2 receptor (Homo sapiens, UniProt P41597).
T1 construct: expressed in transfected cells
Description: Calcium activity assay on FLIPR Tetra in HEK-Gqi5 cells stably expressing CCR2. Type of assay: cell-based. As to the method:
HEK-Gqi5 cells stably expressing CCR2 were cultured in DMEM high glucose, 10% FBS, 1% PSA, 400 μg/ml geneticin and 50 μg/ml hygromycin. Appropriate positive control chemokines (MCP-1, MIP1A or RANTES) was used as the positive control agonist for screening compound-induced calcium activity assayed on the FLIPR^Tetra. The drug plates were prepared in 384-well microplates using the EP3 and the MultiPROBE robotic liquid handling systems. Compounds were synthesized and tested for CCR2 activity.
Take `O=C(O)c1ccc(CSc2ccc(Cl)cc2NS(=O)(=O)c2ccc(Cl)c(C(F)(F)F)c2)cc1` [4-({[4-chloro-2-({[4-chloro-3-(trifluoromethyl)phenyl]sulfonyl}amino)phenyl]sulfanyl}methyl)benzoic acid]: the “CCR2 % ANTAGONISM” value came out at 102% and the IC50 (as a rule, the point on the concentration scale where inhibition reaches its midpoint) turned out to be 255 nM.
Regarding `O=C(NCCN1CCCC1)c1ccc(C[S+]([O-])c2ccc(Cl)cc2NS(=O)(=O)c2ccc(Cl)c(C(F)(F)F)c2)cc1` (centres unmarked) [4-({[4-chloro-2-({[4-chloro-3-(trifluoromethyl)phenyl]sulfonyl}amino)phenyl]sulfinyl}methyl)-N-[2-(pyrrolidin-1-yl)ethyl]benzamide], the “CCR2 % ANTAGONISM” value was 85% and the IC50 turned out to be 1430 nM.
In the same order, the values of `O=C(O)c1ccc(C[S+]([O-])c2ccc(Cl)cc2NS(=O)(=O)c2ccc(Cl)c(C(F)(F)F)c2)cc1` (centres unmarked) [4-({[4-chloro-2-({[4-chloro-3-(trifluoromethyl)phenyl]sulfonyl}amino)phenyl]sulfinyl}methyl)benzoic acid] are 23% and 2100 nM.
In the same order, the values of `O=C(CCSc1ccc(Cl)cc1NS(=O)(=O)c1ccc(Cl)c(C(F)(F)F)c1)N1CCCC1` [4-chloro-N-(5-chloro-2-{[3-oxo-3-(pyrrolidin-1-yl)propyl]sulfanyl}phenyl)-3-(trifluoromethyl)benzenesulfonamide] are 60% and 2290 nM.
Take `O=C(CC[S+]([O-])c1ccc(Cl)cc1NS(=O)(=O)c1ccc(Cl)c(C(F)(F)F)c1)N1CCCC1` (centres unmarked) [4-chloro-N-(5-chloro-2-{[3-oxo-3-(pyrrolidin-1-yl)propyl]sulfinyl}phenyl)-3-(trifluoromethyl)benzenesulfonamide]: the “CCR2 % ANTAGONISM” value was found to be 72% and the IC50 is 1660 nM.
Regarding `O=C(CCS(=O)(=O)c1ccc(Cl)cc1NS(=O)(=O)c1ccc(Cl)c(C(F)(F)F)c1)N1CCCC1` [4-chloro-N-(5-chloro-2-{[3-oxo-3-(pyrrolidin-1-yl)propyl]sulfonyl}phenyl)-3-(trifluoromethyl)benzenesulfonamide], the “CCR2 % ANTAGONISM” value amounted to 58%.
Regarding `O=C(O)CSc1ccc(Cl)cc1NS(=O)(=O)c1cc2ccccc2o1` [({2-[(1-benzofuran-2-ylsulfonyl)amino]-4-chlorophenyl}sulfanyl)acetic acid], the “CCR2 % ANTAGONISM” value was found to be 95% and the IC50 turned out to be 484 nM.
`O=C(O)CNC(=O)c1ccc(CSc2ccc(Cl)cc2NS(=O)(=O)c2ccc(Cl)c(C(F)(F)F)c2)cc1` [({[4-({[4-chloro-2-({[4-chloro-3-(trifluoromethyl)phenyl]sulfonyl}amino)phenyl]sulfanyl}methyl)phenyl]carbonyl}amino)acetic acid]: the “CCR2 % ANTAGONISM” value was 75%.
Take `O=C(O)CNC(=O)c1ccc(C[S+]([O-])c2ccc(Cl)cc2NS(=O)(=O)c2ccc(Cl)c(C(F)(F)F)c2)cc1` (centres unmarked) [({[4-({[4-chloro-2-({[4-chloro-3-(trifluoromethyl)phenyl]sulfonyl}amino)phenyl]sulfinyl}methyl)phenyl]carbonyl}amino)acetic acid]: the “CCR2 % ANTAGONISM” value is 24%.
In the case of `CC(=O)Nc1cccc(CSc2ccc(Cl)cc2N(C(C)=O)S(=O)(=O)c2cc3ccccc3o2)c1` [N-(2-{[3-(acetylamino)benzyl]sulfanyl}-5-chlorophenyl)-N-(1-benzofuran-2-ylsulfonyl)acetamide], the “CCR2 % ANTAGONISM” value is given as 73% and the IC50 stood at 1610 nM.
In the same order, the values of `N#Cc1ccc(NS(=O)(=O)c2cc3ccccc3o2)c(SCc2ccccc2)c1` [N-[2-(benzylsulfanyl)-4-cyanophenyl]-1-benzofuran-2-sulfonamide] are 79% and 604 nM.
On to `O=S(=O)(Nc1cc(Cl)ccc1SCc1ccccc1)c1ccc(Cl)c(C(F)(F)F)c1` [N-[2-(benzylsulfanyl)-5-chlorophenyl]-4-chloro-3-(trifluoromethyl)benzenesulfonamide], for which the “CCR2 % ANTAGONISM” value is 68% and the concentration for half-maximal inhibition (IC50) was 1280 nM.
In the case of `N#Cc1ccc(NS(=O)(=O)c2cc3ccccc3o2)c([S+]([O-])Cc2ccccc2)c1` (centres unmarked) [N-[2-(benzylsulfinyl)-4-cyanophenyl]-1-benzofuran-2-sulfonamide], the “CCR2 % ANTAGONISM” value turned out to be 94% and the concentration for half-maximal inhibition (IC50) came to 1030 nM.
In the same order, the values of `O=S(=O)(Nc1cc(Cl)ccc1[S+]([O-])Cc1ccccc1)c1ccc(Cl)c(C(F)(F)F)c1` (centres unmarked) [N-[2-(benzylsulfinyl)-5-chlorophenyl]-4-chloro-3-(trifluoromethyl)benzenesulfonamide] are 77% and 493 nM.
In the same order, the values of `N#Cc1ccc(NS(=O)(=O)c2cc3ccccc3o2)c(S(=O)(=O)Cc2ccccc2)c1` [N-[2-(benzylsulfonyl)-4-cyanophenyl]-1-benzofuran-2-sulfonamide] are 96% and 888 nM.
As to `O=S(=O)(Cc1ccccc1)c1ccc(Cl)cc1NS(=O)(=O)c1ccc(Cl)c(C(F)(F)F)c1` [N-[2-(benzylsulfonyl)-5-chlorophenyl]-4-chloro-3-(trifluoromethyl)benzenesulfonamide], the “CCR2 % ANTAGONISM” value was 71% and the IC50 worked out at 538 nM.
In the same order, the values of `CS(=O)(=O)Nc1cccc(CSc2ccc(Cl)cc2NS(=O)(=O)c2cc3ccccc3o2)c1` [N-[5-chloro-2-({3-[(methylsulfonyl)amino]benzyl}sulfanyl)phenyl]-1-benzofuran-2-sulfonamide] are 90% and 1280 nM.
With `CS(=O)(=O)Nc1cccc(C[S+]([O-])c2ccc(Cl)cc2NS(=O)(=O)c2cc3ccccc3o2)c1` (centres unmarked) [N-[5-chloro-2-({3-[(methylsulfonyl)amino]benzyl}sulfinyl)phenyl]-1-benzofuran-2-sulfonamide], the “CCR2 % ANTAGONISM” value worked out at 77% and the half-maximal inhibitory concentration (IC50) was 2420 nM.
For `CS(=O)(=O)Nc1cccc(CS(=O)(=O)c2ccc(Cl)cc2NS(=O)(=O)c2cc3ccccc3o2)c1` [N-[5-chloro-2-({3-[(methylsulfonyl)amino]benzyl}sulfonyl)phenyl]-1-benzofuran-2-sulfonamide] the same measures were 91% and 6570 nM.
As to `O=C1CCc2cc(NS(=O)(=O)c3cc4ccccc4o3)c([S+]([O-])Cc3ccccc3)cc21` (centres unmarked) [N-[6-(benzylsulfinyl)-1-oxo-2,3-dihydro-1H-inden-5-yl]-1-benzofuran-2-sulfonamide], the “CCR2 % ANTAGONISM” value is 73%.
With `O=C1CCc2cc(NS(=O)(=O)c3cc4ccccc4o3)c(S(=O)(=O)Cc3ccccc3)cc21` [N-[6-(benzylsulfonyl)-1-oxo-2,3-dihydro-1H-inden-5-yl]-1-benzofuran-2-sulfonamide], the “CCR2 % ANTAGONISM” value is on record as 45% and the concentration for half-maximal inhibition (IC50) came out at 2240 nM.
With `CC(=O)Nc1cccc(CSc2ccc(Cl)cc2NS(=O)(=O)c2cc3ccccc3o2)c1` [N-{3-[({2-[(1-benzofuran-2-ylsulfonyl)amino]-4-chlorophenyl}sulfanyl)methyl]phenyl}acetamide], the “CCR2 % ANTAGONISM” value was found to be 96% and the half-maximal inhibitory concentration (IC50) is 379 nM.
Regarding `CC(=O)Nc1cccc(C[S+]([O-])c2ccc(Cl)cc2NS(=O)(=O)c2cc3ccccc3o2)c1` (centres unmarked) [N-{3-[({2-[(1-benzofuran-2-ylsulfonyl)amino]-4-chlorophenyl}sulfinyl)methyl]phenyl}acetamide], the “CCR2 % ANTAGONISM” value is listed as 95%.
